Laboratory results published in PMC6154583, “Optimized 4,5-Diarylimidazoles as Potent/Selective Inhibitors of Protein Kinase CK1δ and Their Structural Relation to p38α MAPK” (Molecules : A Journal of Synthetic Chemistry and Natural …, 2017).

Assays:
[1] = target: CAMKK2 (Homo sapiens, UniProt Q96RR4); assay: ProQinase 33PanQinase selectivity profiling; format: biochemical; conditions: 100 nM, relative to control, read-out: Residual activity (%)
[2] = target: T1, CHK2 (Homo sapiens, UniProt O96017); assay: ProQinase 33PanQinase selectivity profiling; format: biochemical; conditions: 100 nM, relative to control, read-out: Residual activity (%)
T1 construct: purchased ProQinase GmbH

[3] = target: T2, CDC42BPA (Homo sapiens, UniProt Q5VT25); assay: ProQinase 33PanQinase selectivity profiling; format: biochemical; conditions: 100 nM, relative to control, read-out: Residual activity (%)
T2 construct: purchased ProQinase GmbH

[4] = target: CDK7/CycH/MAT1 (Homo sapiens, UniProt P50613); assay: ProQinase 33PanQinase selectivity profiling; format: biochemical; conditions: 100 nM, relative to control, read-out: Residual activity (%)
[5] = target: EPHA1 (Homo sapiens, UniProt P21709); assay: ProQinase 33PanQinase selectivity profiling; format: biochemical; conditions: 100 nM, relative to control, read-out: Residual activity (%)
[6] = target: CDK1/CycA2 (Homo sapiens, UniProt P06493); assay: ProQinase 33PanQinase selectivity profiling; format: biochemical; conditions: 100 nM, relative to control, read-out: Residual activity (%)
[7] = target: CAMK2A (Homo sapiens, UniProt Q9UQM7); assay: ProQinase 33PanQinase selectivity profiling; format: biochemical; conditions: 100 nM, relative to control, read-out: Residual activity (%)
[8] = target: T3, EIF2AK2 (Homo sapiens, UniProt P19525); assay: ProQinase 33PanQinase selectivity profiling; format: biochemical; conditions: 100 nM, relative to control, read-out: Residual activity (%)
T3 construct: purchased ProQinase GmbH

[9] = target: T4, CDC42BPB (Homo sapiens, UniProt Q9Y5S2); assay: ProQinase 33PanQinase selectivity profiling; format: biochemical; conditions: 100 nM, relative to control, read-out: Residual activity (%)
T4 construct: purchased ProQinase GmbH

[10] = target: T5, CLK3 (Homo sapiens, UniProt P49761); assay: ProQinase 33PanQinase selectivity profiling; format: biochemical; conditions: 100 nM, relative to control, read-out: Residual activity (%)
T5 construct: purchased ProQinase GmbH

[11] = target: JNK2 (Homo sapiens, UniProt P45984); assay: ProQinase 33PanQinase selectivity profiling; format: biochemical; conditions: 100 nM, relative to control, read-out: residual activity
[12] = target: CK2-alpha2 (Homo sapiens, UniProt P19784); assay: ProQinase 33PanQinase selectivity profiling; format: biochemical; conditions: 100 nM, relative to control, read-out: Residual activity (%)
[13] = target: DAPK2 (Homo sapiens, UniProt Q9UIK4); assay: ProQinase 33PanQinase selectivity profiling; format: biochemical; conditions: 100 nM, relative to control, read-out: Residual activity (%)
[14] = target: T6, ACV-R2B (Homo sapiens, UniProt Q13705); assay: ProQinase 33PanQinase selectivity profiling; format: biochemical; conditions: 100 nM, relative to control, read-out: Residual activity (%)
T6 construct: purchased ProQinase GmbH (Freiburg, Germany)

[15] = target: CK1-alpha1 (Homo sapiens, UniProt P48729); assay: ProQinase 33PanQinase selectivity profiling; format: biochemical; conditions: 100 nM, relative to control, read-out: Residual activity (%)
[16] = target: T7, CDC7/ASK (Homo sapiens, UniProt O00311); assay: ProQinase 33PanQinase selectivity profiling; format: biochemical; conditions: 100 nM, relative to control, read-out: Residual activity (%)
T7 construct: purchased ProQinase GmbH

[17] = target: T8, AMPK-alpha1 aa1-550 (Homo sapiens, UniProt Q13131); assay: ProQinase 33PanQinase selectivity profiling; format: biochemical; conditions: 100 nM, relative to control, read-out: Residual activity (%)
T8 construct: AMPK-alpha1 aa1-550; purchased ProQinase GmbH (Freiburg, Germany)

[18] = target: CK1-epsilon (Homo sapiens, UniProt P49674); assay: ProQinase 33PanQinase selectivity profiling; format: biochemical; conditions: 100 nM, relative to control, read-out: Residual activity (%)
[19] = target: EEF2K (Homo sapiens, UniProt O00418); assay: ProQinase 33PanQinase selectivity profiling; format: biochemical; conditions: 100 nM, relative to control, read-out: Residual activity (%)
[20] = target: BRSK2 (Homo sapiens, UniProt Q8IWQ3); assay: ProQinase 33PanQinase selectivity profiling; format: biochemical; conditions: 100 nM, relative to control, read-out: Residual activity (%)
[21] = target: T9, AKT2 aa107-481 (Homo sapiens, UniProt P31751); assay: ProQinase 33PanQinase selectivity profiling; format: biochemical; conditions: 100 nM, relative to control, read-out: Residual activity (%)
T9 construct: AKT2 aa107-481; purchased ProQinase GmbH (Freiburg, Germany)

[22] = target: T10, EPHA4 (Homo sapiens, UniProt P54764); assay: ProQinase 33PanQinase selectivity profiling; format: biochemical; conditions: 100 nM, relative to control, read-out: Residual activity (%)
T10 construct: purchased ProQinase GmbH

[23] = target: T11, BRK (Homo sapiens, UniProt Q13882); assay: ProQinase 33PanQinase selectivity profiling; format: biochemical; conditions: 100 nM, relative to control, read-out: Residual activity (%)
T11 construct: purchased ProQinase GmbH

[24] = target: CDK9/CycT1 (Homo sapiens, UniProt P50750); assay: ProQinase 33PanQinase selectivity profiling; format: biochemical; conditions: 100 nM, relative to control, read-out: Residual activity (%)
[25] = target: CK1-gamma3 (Homo sapiens, UniProt Q9Y6M4); assay: ProQinase 33PanQinase selectivity profiling; format: biochemical; conditions: 100 nM, relative to control
[26] = target: CAMK2G (Homo sapiens, UniProt Q13555); assay: ProQinase 33PanQinase selectivity profiling; format: biochemical; conditions: 100 nM, relative to control, read-out: Residual activity (%)
[27] = target: DCAMKL2 (Homo sapiens, UniProt Q8N568); assay: ProQinase 33PanQinase selectivity profiling; format: biochemical; conditions: 100 nM, relative to control, read-out: Residual activity (%)
[28] = target: DDR2 (Homo sapiens, UniProt Q16832); assay: ProQinase 33PanQinase selectivity profiling; format: biochemical; conditions: 100 nM, relative to control, read-out: Residual activity (%)
[29] = target: EPHA5 (Homo sapiens, UniProt P54756); assay: ProQinase 33PanQinase selectivity profiling; format: biochemical; conditions: 100 nM, relative to control, read-out: Residual activity (%)
[30] = tested on: Colo357 cells; assay: MTT viability assay; format: cell-based, human; conditions: Homo sapiens, COLO357, 48 h incubation, mean ± SD, n = 3
Description: (§1) The human pancreatic cancer cell lines Colo357 [61], Panc-1 [62], and MiaPaCa-2 [63] were grown in Dulbecco’s modified Eagle’s medium (DMEM). Panc89 [64] was grown in DMEM:RPMI-1640 medium in ratio 1:1. The human colon adenocarcinoma cell line HT-29 [65] was grown in McCoy’s 5A medium. All media were supplemented with 10% fetal calf serum (FCS), 100 units·mL^−1 penicillin, 100 µg∙mL^−1 streptomycin and 2 mM glutamine. All cells were grown at 37 °C in a humidified 5% carbon dioxide atmosphere.
(§2) In order to determine the cytotoxic effects of investigated inhibitors conventional MTT assay were used. 1 × 10^4 cells∙well^−1 were seeded in 96-well cell culture plates and cultivated for 24 h. Cell lines were exposed to increasing concentrations of the indicated inhibitor compounds, with untreated and DMSO-treated cells serving as control. After an incubation period of 48 h 10 µL of MTT solution (5 mg∙mL^−1 in PBS) were added and cells were incubated for 4 h. MTT-containing medium was carefully removed and 100 µL acidic isopropanol (0.04 N HCl in isopropanol) per well were added. For dissolution of formazan crystals plates were shaken for 30 min on an orbital shaker in the dark. Finally, dissolved crystals were measured spectrophotometrically at […]. All experiments were performed in triplicate with four technical replicates per assay. Results were normalized considering the mean optical density value of control wells as 100%. GraphPad Prism 6 (La Jolla, CA, USA) software was used to calculate EC50 values.

[31] = tested on: Panc89 cells; assay: MTT viability assay; format: cell-based, human; conditions: Homo sapiens, 48 h incubation, mean ± SD, n = 3
Description: as §1, §2

[32] = target: T12, EIF2AK3 (Homo sapiens, UniProt Q9NZJ5); assay: ProQinase 33PanQinase selectivity profiling; format: biochemical; conditions: 100 nM, relative to control, read-out: Residual activity (%)
T12 construct: purchased ProQinase GmbH

CK1-gamma3, sequence (Q9Y6M4 whole entry): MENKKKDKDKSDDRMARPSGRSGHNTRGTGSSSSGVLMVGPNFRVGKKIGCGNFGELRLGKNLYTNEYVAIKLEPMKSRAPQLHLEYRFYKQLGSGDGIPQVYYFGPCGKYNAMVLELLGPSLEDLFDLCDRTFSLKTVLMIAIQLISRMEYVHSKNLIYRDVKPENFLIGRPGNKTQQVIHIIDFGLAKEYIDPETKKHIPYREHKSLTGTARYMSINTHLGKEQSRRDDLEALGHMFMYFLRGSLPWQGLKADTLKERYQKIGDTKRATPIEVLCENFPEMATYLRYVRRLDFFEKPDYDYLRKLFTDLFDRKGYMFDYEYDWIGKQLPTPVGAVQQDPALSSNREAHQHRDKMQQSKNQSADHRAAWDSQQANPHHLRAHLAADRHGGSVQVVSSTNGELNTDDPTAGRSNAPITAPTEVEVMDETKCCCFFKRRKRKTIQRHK
T1 sequence (O96017 whole entry): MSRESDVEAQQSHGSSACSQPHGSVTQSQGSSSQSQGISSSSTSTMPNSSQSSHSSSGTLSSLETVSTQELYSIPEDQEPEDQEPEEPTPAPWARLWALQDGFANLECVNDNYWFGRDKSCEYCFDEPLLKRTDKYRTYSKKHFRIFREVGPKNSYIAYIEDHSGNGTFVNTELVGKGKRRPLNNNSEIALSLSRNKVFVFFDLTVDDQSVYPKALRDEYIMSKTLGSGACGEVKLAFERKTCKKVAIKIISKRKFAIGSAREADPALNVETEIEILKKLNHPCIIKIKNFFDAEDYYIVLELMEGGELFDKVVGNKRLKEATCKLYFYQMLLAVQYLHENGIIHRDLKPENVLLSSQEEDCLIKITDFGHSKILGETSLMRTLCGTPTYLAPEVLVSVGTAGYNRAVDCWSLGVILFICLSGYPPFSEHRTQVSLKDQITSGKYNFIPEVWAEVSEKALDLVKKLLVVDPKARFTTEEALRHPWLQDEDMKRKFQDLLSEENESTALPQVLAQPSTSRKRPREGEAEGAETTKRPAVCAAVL
T6 sequence (Q13705 19-512): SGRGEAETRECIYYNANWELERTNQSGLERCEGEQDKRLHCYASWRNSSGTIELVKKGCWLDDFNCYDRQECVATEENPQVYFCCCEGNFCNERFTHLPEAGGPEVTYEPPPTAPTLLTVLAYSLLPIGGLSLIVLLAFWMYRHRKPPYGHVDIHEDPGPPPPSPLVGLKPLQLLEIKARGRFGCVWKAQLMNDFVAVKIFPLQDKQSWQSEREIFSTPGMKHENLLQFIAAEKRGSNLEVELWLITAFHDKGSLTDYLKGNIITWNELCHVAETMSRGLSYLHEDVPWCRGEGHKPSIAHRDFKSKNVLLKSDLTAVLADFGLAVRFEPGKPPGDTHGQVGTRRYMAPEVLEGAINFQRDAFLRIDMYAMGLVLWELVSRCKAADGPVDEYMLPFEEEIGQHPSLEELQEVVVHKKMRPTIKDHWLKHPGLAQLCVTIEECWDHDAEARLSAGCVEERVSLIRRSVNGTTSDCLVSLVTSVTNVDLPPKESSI
CK1-epsilon, sequence (P49674 whole entry): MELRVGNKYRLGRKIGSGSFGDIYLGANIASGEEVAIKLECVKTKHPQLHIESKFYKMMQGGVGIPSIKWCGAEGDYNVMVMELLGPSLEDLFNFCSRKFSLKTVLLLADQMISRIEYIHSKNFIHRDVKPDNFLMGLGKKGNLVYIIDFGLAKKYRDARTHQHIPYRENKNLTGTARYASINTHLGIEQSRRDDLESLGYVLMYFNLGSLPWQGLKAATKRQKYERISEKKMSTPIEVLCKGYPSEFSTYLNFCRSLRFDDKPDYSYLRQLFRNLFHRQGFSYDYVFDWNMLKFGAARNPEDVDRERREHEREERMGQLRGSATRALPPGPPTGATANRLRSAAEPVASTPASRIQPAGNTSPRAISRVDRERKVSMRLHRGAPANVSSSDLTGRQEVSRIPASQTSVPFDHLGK
DCAMKL2, sequence (Q8N568 whole entry): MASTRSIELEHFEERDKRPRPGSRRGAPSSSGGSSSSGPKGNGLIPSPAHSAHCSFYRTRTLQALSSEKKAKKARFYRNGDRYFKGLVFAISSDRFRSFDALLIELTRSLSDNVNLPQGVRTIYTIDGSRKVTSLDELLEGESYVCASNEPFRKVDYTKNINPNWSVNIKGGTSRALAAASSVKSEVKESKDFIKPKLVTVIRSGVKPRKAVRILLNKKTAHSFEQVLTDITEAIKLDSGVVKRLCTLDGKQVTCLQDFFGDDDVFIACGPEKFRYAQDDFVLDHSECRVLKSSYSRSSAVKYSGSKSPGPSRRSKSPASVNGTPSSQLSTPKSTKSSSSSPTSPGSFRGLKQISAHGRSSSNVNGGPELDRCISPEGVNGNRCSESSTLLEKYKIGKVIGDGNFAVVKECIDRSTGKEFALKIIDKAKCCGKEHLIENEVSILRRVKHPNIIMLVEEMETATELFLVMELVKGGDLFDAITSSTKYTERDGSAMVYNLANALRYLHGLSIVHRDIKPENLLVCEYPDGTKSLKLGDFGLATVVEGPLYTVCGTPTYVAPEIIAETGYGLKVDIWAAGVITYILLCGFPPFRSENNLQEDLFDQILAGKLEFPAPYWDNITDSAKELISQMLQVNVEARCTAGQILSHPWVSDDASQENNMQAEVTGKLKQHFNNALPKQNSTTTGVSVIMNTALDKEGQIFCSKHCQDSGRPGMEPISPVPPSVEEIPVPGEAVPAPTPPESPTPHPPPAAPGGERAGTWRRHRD
CDK7/CycH/MAT1, sequence (P50613 whole entry): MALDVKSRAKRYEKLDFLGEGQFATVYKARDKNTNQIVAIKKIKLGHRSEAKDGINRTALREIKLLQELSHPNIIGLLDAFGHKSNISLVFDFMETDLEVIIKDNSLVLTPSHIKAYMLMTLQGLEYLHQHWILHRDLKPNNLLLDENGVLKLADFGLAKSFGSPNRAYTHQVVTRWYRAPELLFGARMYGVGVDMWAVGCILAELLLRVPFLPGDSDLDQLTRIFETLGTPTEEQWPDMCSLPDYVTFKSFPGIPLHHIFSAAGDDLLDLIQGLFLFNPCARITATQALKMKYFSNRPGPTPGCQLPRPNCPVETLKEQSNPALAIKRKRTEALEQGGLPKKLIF
CDK7/CycH/MAT1, sequence (P51946 whole entry partner): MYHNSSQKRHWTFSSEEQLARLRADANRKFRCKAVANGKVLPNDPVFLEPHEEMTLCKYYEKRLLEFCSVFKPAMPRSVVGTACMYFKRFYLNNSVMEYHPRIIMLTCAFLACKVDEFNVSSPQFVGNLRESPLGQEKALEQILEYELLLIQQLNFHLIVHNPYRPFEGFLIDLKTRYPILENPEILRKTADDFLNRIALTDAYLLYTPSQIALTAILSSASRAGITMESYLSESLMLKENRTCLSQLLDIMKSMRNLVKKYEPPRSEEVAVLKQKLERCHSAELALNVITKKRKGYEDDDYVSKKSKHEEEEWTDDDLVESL
CDK7/CycH/MAT1, sequence (P51948 whole entry partner): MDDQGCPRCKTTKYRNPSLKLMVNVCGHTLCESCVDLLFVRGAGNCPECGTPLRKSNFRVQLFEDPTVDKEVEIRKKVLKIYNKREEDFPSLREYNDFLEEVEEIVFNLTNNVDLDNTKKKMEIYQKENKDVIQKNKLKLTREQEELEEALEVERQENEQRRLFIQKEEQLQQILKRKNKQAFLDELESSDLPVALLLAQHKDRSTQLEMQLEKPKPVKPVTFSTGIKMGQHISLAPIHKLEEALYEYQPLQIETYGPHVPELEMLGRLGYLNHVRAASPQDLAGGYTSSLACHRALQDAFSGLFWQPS
CDK1/CycA2, sequence (P06493 whole entry): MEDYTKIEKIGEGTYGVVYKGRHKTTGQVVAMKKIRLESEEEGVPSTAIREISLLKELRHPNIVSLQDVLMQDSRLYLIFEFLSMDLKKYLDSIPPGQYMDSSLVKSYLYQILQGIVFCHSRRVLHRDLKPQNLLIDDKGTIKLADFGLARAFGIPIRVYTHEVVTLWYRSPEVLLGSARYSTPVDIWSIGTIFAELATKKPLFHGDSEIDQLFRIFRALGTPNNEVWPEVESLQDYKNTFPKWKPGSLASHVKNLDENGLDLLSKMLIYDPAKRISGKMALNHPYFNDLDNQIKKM
CDK1/CycA2, sequence (P20248 whole entry partner): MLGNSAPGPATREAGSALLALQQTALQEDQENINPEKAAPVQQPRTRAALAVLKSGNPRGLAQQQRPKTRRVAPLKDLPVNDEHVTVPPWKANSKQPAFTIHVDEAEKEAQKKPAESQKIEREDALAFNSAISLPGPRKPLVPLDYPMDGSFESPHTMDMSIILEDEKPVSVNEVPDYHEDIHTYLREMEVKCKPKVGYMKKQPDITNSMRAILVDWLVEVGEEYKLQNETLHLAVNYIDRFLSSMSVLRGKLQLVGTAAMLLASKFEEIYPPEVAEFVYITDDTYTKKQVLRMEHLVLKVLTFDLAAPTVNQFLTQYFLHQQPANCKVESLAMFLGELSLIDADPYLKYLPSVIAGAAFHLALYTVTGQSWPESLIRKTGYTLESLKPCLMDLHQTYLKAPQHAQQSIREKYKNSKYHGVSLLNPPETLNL
T11 sequence (Q13882 whole entry): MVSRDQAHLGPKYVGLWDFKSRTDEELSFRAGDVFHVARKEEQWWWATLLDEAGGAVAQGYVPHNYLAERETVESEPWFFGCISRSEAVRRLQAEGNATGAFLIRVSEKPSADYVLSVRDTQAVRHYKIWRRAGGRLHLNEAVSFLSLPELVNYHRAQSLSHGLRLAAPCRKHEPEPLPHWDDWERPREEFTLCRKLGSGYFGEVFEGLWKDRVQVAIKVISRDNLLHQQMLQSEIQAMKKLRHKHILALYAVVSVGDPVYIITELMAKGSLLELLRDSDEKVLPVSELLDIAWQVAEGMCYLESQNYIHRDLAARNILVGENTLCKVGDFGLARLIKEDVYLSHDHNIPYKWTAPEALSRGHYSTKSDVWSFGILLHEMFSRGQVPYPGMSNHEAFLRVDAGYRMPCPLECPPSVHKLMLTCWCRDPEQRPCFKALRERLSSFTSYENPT

With `COc1ccc(OC)c(CCC(=O)Nc2cc(-c3nc(SC)[nH]c3-c3ccc(F)cc3)ccn2)c1` [11b, 3-(2,5-Dimethoxyphenyl)-N-(4-(5-(4-fluorophenyl)-2-(methylthio)-1H-imidazol-4-yl)-pyridin-2-yl)-propanamide] the remaining activity at 0.1 µM [1] was 96%, the remaining activity at 0.1 µM [2] was 98% and the remaining activity at 0.1 µM [3] was 104%. The remaining activity at 0.1 µM [4] was 102%, the remaining activity at 0.1 µM [5] was 104% and the remaining activity at 0.1 µM [6] was 91%. It also gave a remaining activity at 0.1 µM [7] of 95%, a remaining activity at 0.1 µM [8] of 91% and a remaining activity at 0.1 µM [9] of 88%. It also gave a remaining activity at 0.1 µM [10] of 98%, a remaining activity at 0.1 µM [11] of 21% and a remaining activity at 0.1 µM [12] of 90%. The remaining activity at 0.1 µM [13] was 95%, the remaining activity at 0.1 µM [14] was 97% and the remaining activity at 0.1 µM [15] was 26%. It also gave a remaining activity at 0.1 µM [16] of 97%, a remaining activity at 0.1 µM [17] of 96% and a remaining activity at 0.1 µM [18] of 7%. The remaining activity at 0.1 µM [19] was 84%, the remaining activity at 0.1 µM [20] was 105% and the remaining activity at 0.1 µM [21] was 97%. It also gave a remaining activity at 0.1 µM [22] of 96%, a remaining activity at 0.1 µM [23] of 98% and a remaining activity at 0.1 µM [24] of 93%. The “Residual activity (%)” value [25] was “unaffected”, the remaining activity at 0.1 µM ([25]; read-out: Residual activity (%)) was 73% and the remaining activity at 0.1 µM [26] was 105%. It also gave a remaining activity at 0.1 µM [27] of 94%, a remaining activity at 0.1 µM [28] of 101% and a remaining activity at 0.1 µM [29] of 97%. For the same compound, the EC50 [30] was 3.5 ± 0.3 µM, the EC50 [31] was 1.5 ± 0.4 µM and the remaining activity at 0.1 µM [32] was 91%.
